Source: patent publication US20060252740A1 (priority 2005, published 2006)

Legend:
[1] = tested on: patients with advanced solid tumors; conditions: 80 mg/m^2 dose level, cited from earlier work
clinical = experiment: clinical
Method: PK assessments included the following tests. […] The total number of PK samples collected was approximately 115 mL of whole blood (7-8 tablespoons). If a patient experienced a potentially drug-related SAE, additional PK samples were collected. Blood was drawn from the contralateral arm to the infusion site using an indwelling catheter to avoid multiple needle sticks. […] The blood tube was inverted several times and the tube placed in wet ice immediately pending separation of the plasma. If a catheter was used for blood collection, the fluid in the catheter was completely withdrawn prior to each sample collection and discarded. Plasma samples were kept on wet ice during collection and centrifugation. Plasma samples were split into two cryovials prior to freezing at −70° C.

[2] = Cellular assays (potency of 17-AAG versus 17-AG); type: cell-based
[3] = tested on: adult patients with solid tumors; conditions: patients treated at 56 mg/m^2; cited from earlier work
[4] = tested on: patients with advanced solid tumors; conditions: population PK analysis; cited from earlier work
MM cells = conditions: cited from earlier work
[5] = 17-AG metabolite, Cohorts 3 & 4, 17-AAG 150 mg/m^2, Max
[6] = 17-AG metabolite, Cohorts 3 & 4, 17-AAG 150 mg/m^2, Median
[7] = 17-AG metabolite, Cohorts 3 & 4, 17-AAG 150 mg/m^2, Min

CO[C@H]1/C=C\C=C(/C)C(=O)NC2=CC(=O)C(N)=C(C[C@@H](C)C[C@H](OC)[C@H](O)[C@@H](C)/C=C(\C)[C@@H]1OC(N)=O)C2=O [17-AG, 17-aminogeldanamycin]
t1/2 [1]: 1.75 h | Cmax ([1]; read-out: plasma Cmax): 607 nM | AUCext (clinical; [5]): 16.0% | AUCextra (clinical; [5]): 2,604 ng/mL * h | AUCtotal (clinical; [5]): 16,323 ng/mL * h | Lz (clinical; [5]): 0.1512 | AUCext (clinical; [6]): 5.0% | AUCtotal (clinical; [6]): 3,253 ng/mL * h | Lz (clinical; [6]): 0.1200 | AUCext (clinical; [7]): 2.2% | AUCtotal (clinical; [7]): 980 ng·h/mL | Lz (clinical; [7]): 0.0765 | average ratio of AUCtotal for the 17-AG to AUCtotal for the parent drug 17-AAG (clinical; data of Tables 2 and 3, cohorts 1-4): 82.5±90.5% | AUC(0-t) (clinical; human, plasma, intravenous, 100 mg/m2, AUClast, 17-AG metabolite, Cohorts 1 & 2, 17-AAG 100 mg/m^2, Mean): 3480 ng·h/mL | half-life (clinical; human, plasma, intravenous, Terminal elimination half-life, 17-AG metabolite, cohorts 1-4 combined): 6.52 ± 1.74 h | elimination in plasma profiles (clinical; plasma profiles after 17-AAG infusion): much slower elimination | relative potency of 17-AAG and 17-AG [2]: equipotent in cellular assays | Clearance [3]: 30.8 L/h/m^2 | VZ [3]: 203 L/m^2 | average AUC [3]: 5,558 nM*h | average t1/2 [3]: 8.6 h | Clearance [4]: 21.3 L/h

CC(C)C[C@H](NC(=O)[C@H](Cc1ccccc1)NC(=O)c1cnccn1)B(O)O [bortezomib]
stress response of MM cells (MM cells; pre-clinical studies): triggers significant Hsp90 up-regulation | effect on drug resistance of MM cells (MM cells; preclinical and clinical studies): can overcome resistance of MM cells to conventional or high-dose cytotoxic chemotherapy
